Results published in paper PMC9060900 (RSC Advances, 2019).

Biological target: T1, TMV coat protein (TMV-CP; TMV CP) (Tobacco mosaic virus (vulgare), UniProt P69687)
T1 sequence (P69687 2-159): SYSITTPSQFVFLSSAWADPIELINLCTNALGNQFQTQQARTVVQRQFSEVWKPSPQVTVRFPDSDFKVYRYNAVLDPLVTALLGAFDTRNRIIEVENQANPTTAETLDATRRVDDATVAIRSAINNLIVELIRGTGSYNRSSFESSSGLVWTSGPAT
Test: microscale thermophoresis
Type: binding

SMILES: Cc1csc(/C=C/C(=O)c2ccccc2OCCSc2nnc(-c3ccccc3)c(-c3ccccc3)n2)n1 [4o]
- Kd: 245 ± 63.9 µM
